# Columns and labels:
# [1] = test system: T. b. rhodesiense (STIB 900 strain); design: method as in earlier work; settings: different resazurin protocol, ref 14a, read-out: IC50 (called EC50) against T. b. rhodesiense; cited from earlier work
# T. b. brucei B48 = assay: microbe, parasite or virus in culture; format: cell-based, Trypanosoma brucei brucei
# Experimental: (§1) Organisms and culture media: Only bloodstream trypomastigotes of T. b. brucei were used throughout this study. […] Parasites were cultured in vented flasks at 37 °C and 5 % CO2 atmosphere and they were passaged every 3 days. Bloodstream forms of T. congolense savannah‐type strain IL3000 were cultured in basal MEM medium, supplemented by 10 % fresh goat serum, 14 μL of β‐mercaptoethanol, 800 μL of 200 mM glutamine solution, and 10 mL of penicillin/streptomycin solution per liter of medium (pH 7.3).48 T. congolense were cultured in six‐well plates at 34 °C and 5 % CO2.
# (§2) In brief, the assays were performed in 96‐well plates with 2×10^5 cells per well for T. b. brucei or 5×10^5 cells per well for T. congolense, in their respective culture media. First, 200 μL of test compounds’ solutions (400 μM, in T. brucei or T. congolense medium as appropriate) was added to the first well of each 12‐well row, from which doubling dilutions were conducted over one row per test compound. […] Fluorescence was detected using a FLUOstar Optima (BMG Labtech, Durham, NC, USA) at wavelength of 540 nm (excitation), 590 nm (emission). EC50 values were calculated by nonlinear regression using an equation for a sigmoidal dose–response curve with variable slope using Prism 5.0 (GraphPad Software Inc., San Diego, CA, USA).
# [2] = test system: T. b. brucei 427WT bloodstream trypomastigotes; assay: microbe, parasite or virus in culture; format: cell-based, Trypanosoma brucei brucei; settings: Trypanosoma brucei, 72 h; bloodstream trypomastigotes; resazurin; 48 h + 24 h; n=4; read-out: EC50 T. b. b. 427WT
# Experimental: as §1, §2
# [3] = test system: T. b. brucei aqp2/aqp3‐KO; assay: microbe, parasite or virus in culture; format: cell-based, Trypanosoma brucei brucei
# Experimental: as §1, §2
# T. congolense IL3000 WT = assay: In vitro drug susceptibility assay (resazurin), T. congolense; format: cell-based; settings: Trypanosoma congolense, bloodstream forms, read-out: EC50 T. c. IL3000 WT
# Experimental: as §1, §2
# L6 mammalian cells = test system: L6 mammalian cells; design: method as in earlier work; settings: versus T. b. rhodesiense STIB 900; ref 14a; cited from earlier work
# T. b. brucei ISMR1 = assay: In vitro drug susceptibility assay (resazurin), dyskinetoplastic ISMR1 strain; format: cell-based, Trypanosoma brucei brucei; settings: isometamidium-resistant line
# Experimental: as §1, §2
# [4] = test system: T. b. brucei 427WT bloodstream trypomastigotes; assay: ATP assay on T. b. brucei (luciferin-luciferase); format: cell-based, Trypanosoma brucei brucei; settings: oligomycin 2.0 μg/mL, positive control
# Experimental: (§3) ATP assay on T. b. brucei and HFF cells: Changes in cellular ATP levels due to the exposure of trypanosomes to the test compounds (0.5×EC50) were monitored using the Molecular Probes ATP Determination Kit (A22066, Invitrogen Detection Technologies), based on the luciferin–luciferase bioluminescent enzymatic reaction. Bloodstream trypomastigote cultures of T. brucei s427WT were incubated with and without test compound, and, at each predetermined incubation time, 10^7 cells of each sample were transferred into a microfuge tube and centrifuged at 2000×g for 10 min at 4 °C. The pellet was washed twice with 1 mL of 50 mM Tris⋅HCl (pH 7.4) containing 0.1 mM DTT, and then resuspended in 200 μL of the same buffer. The cells were lysed by sonication on ice (twice for 10 s separated by 30 s), using a Soniprep 150 (MSE) at 8 μm amplitude. The samples were centrifuged at 10 000×g for 10 min at 4 °C and the supernatant was collected, instantly frozen in liquid nitrogen, and stored at −80 °C. Oligomycin (2.0 μg mL^−1) was used as positive control. ATP levels were quantified using the contents of the kit following the manufacturer's instructions; 90 μL of standard reaction solution was added to each well of a 96‐well plate and the background luminescence was recorded in a FLUOstar OPTIMA fluorimeter; 10 μL of each sample was then added to each well. The plate was incubated at 28 °C for 15 min and the luminescence was measured, including a standard curve with an ATP concentration ranging from 1 nM to 1 μM to allow the calculation of the ATP concentrations in each sample. The ATP content was measured at 0, 0.5, 1, 2, 4, 8 and 12 h of incubation with test sample.
# HFF cells = assay: ATP assay on HFF cells; format: cell-based, human; settings: 22 at 200 μM, oligomycin 2 μg/mL; 0, 4, 8 h
# Experimental: as §3, with “same buffer. […] ATP levels” for “same buffer. The cells were lysed by sonication on ice (twice for 10 s separated by 30 s), using a Soniprep 150 (MSE) at 8 μm amplitude. The samples were centrifuged at 10 000×g for 10 min at 4 °C and the supernatant was collected, instantly frozen in liquid nitrogen, and stored at −80 °C. Oligomycin (2.0 μg mL^−1) was used as positive control. ATP levels”, “test sample. […]” for “test sample.”
Structure (SMILES),IC50 [1] [µM],"RF, resistance factor relative to WT (B48) (T. b. brucei B48; B48 versus 427WT)","EC50 (T. b. brucei B48; Trypanosoma brucei, read-out: EC50 T. b. b. B48) [µM]",EC50 [2] [µM],"EC50 ([3]; Trypanosoma brucei, read-out: EC50 T. b. b. aqp2/aq3‐KO) [µM]","RF, resistance factor relative to WT (aqp2/aqp3-KO) ([3]; aqp2/aqp3-KO versus 427WT)",EC50 (T. congolense IL3000 WT) [µM],selectivity index (SI) with respect to L6 mammalian cells (L6 mammalian cells),EC50 in ISMR1 relative to 427WT tested in parallel (T. b. brucei ISMR1),effect on ATP levels relative to 20 and 22 [4],effect on cellular ATP levels of HFF cells (HFF cells)
"O=C1C=C(Oc2ccccc2)C(=O)c2ccccc21 [Compound 4, 2‐phenoxynaphthalene‐1,4‐dione, reference compound]",0.08,1.3,63 ± 0.4,48.7 ± 0.8,62.4 ± 0.8,1.3,108 ± 2,74,did not show a significant increase in the EC50 values,–,–
"CC[C@H]1/C=C/C=C/C[C@@H](C)[C@H](O)[C@@](C)(O)C(=O)[C@@H](C)[C@H](O)[C@@H](C)C(=O)[C@@H](C)[C@H](O)[C@@H](C)/C=C/C(=O)O[C@@H]2[C@H](C)[C@H](CC1)O[C@]1(CC[C@H](C)[C@H](C[C@@H](C)O)O1)[C@H]2C [oligomycin, reference compound]",–,–,–,–,–,–,–,–,–,depressed the ATP levels even further,strong effect even at 4 h

# Source: publication PMC6686156, “Discovery of Sustainable Drugs for Neglected Tropical Diseases: Cashew Nut Shell Liquid (CNSL)‐Based Hybrids Target Mitochondrial Function and ATP Production in Trypanosoma brucei” (Chemmedchem, 2019)
